Results taken from paper PMC8165606, “Effects of Natural Monoamine Oxidase Inhibitors on Anxiety-Like Behavior in Zebrafish” (Frontiers in Pharmacology, 2021).
Where a name gives a salt, the structure may show the parent alone. Read-outs that look alike come from different tables or passages of the source.

Tests used:
MAO B = target: T1, MAO B (Homo sapiens, UniProt P27338); assay: MAO-Glo two-step bioluminescent assay, MAO B; type: biochemical; details: mean ± SEM; substrate 3 µM
T1 sequence (P27338 1-520): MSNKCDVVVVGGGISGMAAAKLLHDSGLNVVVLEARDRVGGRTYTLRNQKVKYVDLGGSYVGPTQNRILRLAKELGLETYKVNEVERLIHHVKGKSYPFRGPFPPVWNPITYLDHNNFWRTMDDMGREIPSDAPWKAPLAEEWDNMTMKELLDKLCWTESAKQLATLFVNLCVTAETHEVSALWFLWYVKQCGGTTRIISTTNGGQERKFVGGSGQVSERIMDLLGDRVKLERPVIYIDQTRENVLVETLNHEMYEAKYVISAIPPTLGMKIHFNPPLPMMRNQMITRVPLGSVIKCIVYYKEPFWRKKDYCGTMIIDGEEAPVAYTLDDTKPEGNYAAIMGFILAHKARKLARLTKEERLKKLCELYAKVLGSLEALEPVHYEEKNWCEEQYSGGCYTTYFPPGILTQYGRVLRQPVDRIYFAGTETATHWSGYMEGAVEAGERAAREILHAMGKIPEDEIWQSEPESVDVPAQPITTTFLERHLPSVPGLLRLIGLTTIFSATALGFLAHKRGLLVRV
From the text: (§1) Fluostar Omega 96 Microplate reader (BMG LABTECH GmbH, Ortenberg, Germany) was used to measure the luminescent signal and to determine the IC50 (half maximal inhibitory concentration).

zebrafish = details: for NTT time spent at the top and bottom: 20 min treatment, 5 min test
Method: Adult male and female wild-type zebrafish were treated with the compounds for 20 min in a final volume of 50 ml in a 250-ml treatment beaker, one fish at a time. […] If not, the concentration was reduced until no obvious signs of tolerability problems (e.g., seizure-like tail or body movement) were observed.
Following compound treatment in a 250 ml beaker, the fish were briefly rinsed in fresh system water, and then immediately transferred to a trapezoidal tank (14.6 cm height x 5.5 cm width x 27.9 cm top length and x 23.6 cm bottom length) filled with 1.5 L system water (Figure 1B). The behavior of the fish was monitored for the next 5 min by using the Noldus EthoVision XT system (Wageningen, Netherlands), with the camera placed approximately 1 m from the test tank (Figure 1C). The water-filled part of the tank (11.5 cm height) was virtually divided into top, center, and bottom (Figure 1B). The average time spent at the top and bottom portions of the tank was analyzed to determine the anxiety-like behavior of fish. […] The experimenters were blind to the test conditions. A minimum of 12 fish (6 females and 6 males) per condition were used for the study.
The behavioral findings were analyzed in 1 min bins using two-way repeated measures ANOVA with Dunnett post hoc analysis. The analyses were conducted by using GraphPad Prism v8.2.1 (GraphPad Software, San Diego, CA, United States).

MAO A = target: T2, MAO A (Homo sapiens, UniProt P21397); assay: MAO-Glo two-step bioluminescent assay, MAO A; type: biochemical; details: for Selectivity between MAO A and B: present study
T2 sequence (P21397 1-527): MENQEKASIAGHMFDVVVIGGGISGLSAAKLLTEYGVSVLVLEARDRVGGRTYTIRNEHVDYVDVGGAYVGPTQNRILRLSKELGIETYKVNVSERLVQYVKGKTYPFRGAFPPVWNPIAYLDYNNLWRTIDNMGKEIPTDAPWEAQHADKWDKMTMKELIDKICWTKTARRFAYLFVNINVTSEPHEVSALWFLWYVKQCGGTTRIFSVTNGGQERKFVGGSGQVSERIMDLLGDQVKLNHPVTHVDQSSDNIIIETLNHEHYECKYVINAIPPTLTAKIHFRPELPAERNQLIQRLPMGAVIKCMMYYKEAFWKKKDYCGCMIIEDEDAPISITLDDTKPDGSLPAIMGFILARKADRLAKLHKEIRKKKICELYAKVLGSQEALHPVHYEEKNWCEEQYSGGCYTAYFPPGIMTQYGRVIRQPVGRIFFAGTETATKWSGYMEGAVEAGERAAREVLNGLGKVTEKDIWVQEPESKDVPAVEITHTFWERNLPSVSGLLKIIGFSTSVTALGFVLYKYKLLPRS
From the text: as §1

[1] = test system: norepinephrine transporter; assay: Pilot in vitro norepinephrine transporter binding (data not shown); details: pilot study in vitro
serotonin receptor = assay: Pilot in vitro serotonin receptor binding (data not shown); details: pilot study in vitro
zebrafish brain = assay: Ex vivo bioavailability assay in fish brain (UPLC-HRMS or GC/MS); details: relative brain level per 1 mg/L
Method: The fish were decapitated at the level of the gills by using a surgical knife. The head was turned dorsal side down, and, soft tissue was removed from the ventral side of the skull using two forceps until the base of the skull was exposed. The skull was broken open, and the bone from the ventral side of the brain was removed. The brain was then placed in a microcentrifuge tube, weighed, snap-frozen in liquid nitrogen, and stored at −80°C until the analysis.
Briefly, on the day of analysis, the brain samples were defrosted, resuspended in a methanol solution (2:1 [v/v] methanol:MilliQ water), and homogenized with vigorous agitation and ultrasonication (5 min each). The homogenate was centrifuged at 15,000 x rpm for 10 min, and the supernatant was analyzed by using a UPLC-Q Exactive Orbitrap-HRMS system (Thermo Fisher Scientific™, Bremen, Germany) for all compounds except for TMN, which was analyzed by gas chromatography/mass spectrometry (GC/MS) system. Chromatographic separation was achieved on a Synergi™ 4-µm Hydro-RP 80 Å, L.C. […]
For TMN, the Agilent GC/MS system (Agilent, Santa Clara, CA, United States) was used, because it is an apolar aromatic compound that could not be ionized for the detection by the UPLC-Q Exactive Orbitrap-HRMS system. […] The results were quantified using Agilent MS Workstation software (v6.9.3).

MAO-A and MAO-B [2] = test system: MAO-A and MAO-B; set-up: method as in Fisar et al., 2010; details: crude pig brain mitochondrial fractions ref Fisar et al., 2010; cited from earlier work
MAO-A and MAO-B [3] = details: cited from earlier work
[4] = all concentrations tested, throughout the test period
[5] = two highest concentrations tested

For `CC1=C(C)C(=O)c2cc(C)ccc2C1=O` [TMN, 2,3,6-trimethyl-1,4-naphtoquinone], the IC50 (MAO B) was 7.14 ± 2.29 µM, the “NTT time spent at the top and bottom” value (zebrafish; 10 mg/L) was “only an anxiogenic-like effect during the last couple of minutes” and the “NTT time spent at the top and bottom” value (zebrafish; 30 mg/L) was “mix of both anxiolytic- and anxiogenic-like behaviors”. For the same molecule, the “NTT total distance traveled” value (zebrafish; [4]) was “significantly reduced”, the Tolerability in zebrafish (zebrafish; highest concentrations tested, relatively high number of fish with long freezing) was “borderline of tolerability” and the NTT freezing time (zebrafish; [5]) was “increased the freezing time”. For the same molecule, the IC50 (MAO A; mean ± SEM, substrate 20 µM, read-out: MAO a IC50) was 1.14 ± 0.74 µM and the “Selectivity between MAO A and B” value (MAO A) was “no selectivity”.

With `c1ccc2c(c1)CCNC2` [TIQ, 1,2,3,4-tetrahydroisoquinoline] the “NTT time spent at the top and bottom” value (zebrafish; 10 mg/L) was “no effect”, the “NTT time spent at the top and bottom” value (zebrafish; 30 mg/L) was “generally increased and decreased the time spent at the top and bottom, respectively” and the “NTT time spent at the top and bottom” value (zebrafish; 100 mg/L) was “generally increased and decreased the time spent at the top and bottom, respectively”. The “Effect on general movement in NTT” value (zebrafish; 10, 30 and 100 mg/L) was “no observable effect on general movement”.

With `C#CCN(C)CCCOc1ccc(Cl)cc1Cl` [Clorgyline, clorgyline hydrochloride, reference compound] the “NTT time spent at the top and bottom” value (zebrafish; 10 mg/L) was “no effect”, the “NTT time spent at the top and bottom” value (zebrafish; 30 mg/L) was “significantly increasing it only during the last 2 min” and the “NTT time spent at the top and bottom” value (zebrafish; 100 mg/L) was “increasing the time spent at the top for almost the entire test period”. For the same molecule, the “NTT total distance traveled” value (zebrafish; [5]) was “significantly reduced” and the Tolerability in zebrafish (zebrafish; zebrafish, in vivo) was “borderline of tolerability”.

In the case of `O=C1CC2(CCCC2)CC(=O)N1CCCCN1CCN(c2ncccn2)CC1` [buspirone, Buspirone hydrochloride, reference compound], the “NTT time spent at the top and bottom, treatment effect” value (zebrafish; 10, 30 and 100 mg/L, two-way ANOVA) is reported as “significant treatment effect” and the Tolerability in zebrafish (zebrafish; zebrafish, in vivo) is reported as “borderline of tolerability”.

With `c1ccc2c(c1)[nH]c1cnccc12` [Norharmane, norharmane] the “Norepinephrine transporter binding activity” value [1] was roughly 10 µM, the “NTT time spent at the top and bottom” value (zebrafish; 0.3 mg/L) was “no effect” and the “NTT time spent at the top and bottom” value (zebrafish; 1 mg/L) was “significant effect between 2 and 3 min of the test”. For the same molecule, the “NTT time spent at the top and bottom” value (zebrafish; 3 mg/L) was “increased the time spent at the top and decreased the time spent at the bottom during the last 2 min”, the “NTT total distance traveled” value (zebrafish; highest concentration tested) was “significantly reduced” and the “Serotonin receptor binding activity” value (serotonin receptor) was roughly 10 µM.

For `Cc1nccc2c1[nH]c1ccccc12` [Harmane], the IC50 (MAO B) was greater than 100 µM, the “Norepinephrine transporter binding activity” value [1] was roughly 10 µM and the “NTT time spent at the top and bottom” value (zebrafish; 1 mg/L) was “increased the time spent at the top and decreased the time spent at the bottom during the first minute”. For the same molecule, the “NTT time spent at the top and bottom” value (zebrafish; 3 mg/L) was “increased the time spent at the top and decreased the time spent at the bottom during the first minute”, the “NTT time spent at the top and bottom” value (zebrafish; 10 mg/L) was “no effect” and the “NTT total distance traveled” value (zebrafish; [4]) was “significantly reduced”. The NTT freezing time (zebrafish; highest concentration tested) was “increased the freezing time during the first 2 min”, the “Serotonin receptor binding activity” value (serotonin receptor) was roughly 10 µM and the IC50 (MAO A) was 0.05 ± 0.03 µM. For the same molecule, the “MAO-A selectivity over MAO-B” value (MAO A; from IC50 values) was > 2,000 fold, the “Selectivity between MAO A and B” value (MAO A) was “only MAO A selective inhibitor” and the “Brain level relative to the rest of compounds tested” value (zebrafish brain) was “approximately 10 fold”.

For `C#CCN(C)Cc1ccccc1` [Pargyline, pargyline hydrochloride], the “Difference between the Ki values of MAO-A and MAO-B” value (MAO-A and MAO-B [2]) is listed as 1.4 fold, the “NTT time spent at the top and bottom” value (zebrafish; 10 mg/L) is listed as “only an anxiogenic-like effect, but only for the first 1 min of the test” and the “NTT total distance traveled” value (zebrafish; [5]) is listed as “significantly reduced”. The “Difference in Ki values of MAO-A and MAO-B” value (MAO-A and MAO-B [3]; recombinant human enzymes ref Oh et al., 2020) was greater than 100 fold and the “Difference in Ki values of MAO-A and MAO-B” value (MAO-A and MAO-B [3]; recombinant human enzymes ref Takao et al., 2019) was 21 fold.
